We go through one molecule from patent publication US20140378525A1, “MATERIALS AND METHODS FOR TREATING PTEN MUTATED OR DEFICIENT CANCER” (priority 2011, published 2014).

Holding throughout (assay): Drug sensitivity of breast cancer cell line to lapatinib
Common to all, as to format: cell-based, human

One assay has as its system JIMT1. Particulars: JIMT1, ERBB2 amplified.
In the next assay the test system is MDAMB453. As to conditions: MDAMB453, ERBB2 amplified.
The next assay has as its system VP229. As to conditions: VP229, ERBB2 amplified.
Another assay relates to SKBR3. As to conditions: SKBR3, ERBB2 amplified.
For another assay, the system named is HCC202. As to conditions: HCC202, ERBB2 amplified.
The next assay concerns BT474. Particulars: BT474, ERBB2 amplified.

Source text for BT474: (§1) To complement this functional viability profiling, we also characterised the breast tumor panel using transcript microarrays, array-based comparative genomic hybridisation (aCGH), drug sensitivity for a small number of targeted agents, as well as gene mutation data.
Source text for HCC202: as §1
Source text for JIMT1: as §1
Source text for MDAMB453: as §1
Source text for SKBR3: as §1
Source text for VP229: as §1

Consider `CS(=O)(=O)CCNCc1ccc(-c2ccc3ncnc(Nc4ccc(OCc5cccc(F)c5)c(Cl)c4)c3c2)o1` [lapatinib], for which the “sensitivity to lapatinib treatment” value is “resistant” in the assay on JIMT1; “resistant” in the assay with MDAMB453; “resistant” in the assay with VP229; “sensitive” in the assay with SKBR3; “sensitive” in the assay on HCC202; “sensitive” in the assay with BT474.
